pIC50: −log10 of the molar value.

The target of one test is T1, Ubiquitin-like modifier-activating enzyme ATG7 (Homo sapiens, UniProt O95352).
T1 sequence (O95352 whole entry): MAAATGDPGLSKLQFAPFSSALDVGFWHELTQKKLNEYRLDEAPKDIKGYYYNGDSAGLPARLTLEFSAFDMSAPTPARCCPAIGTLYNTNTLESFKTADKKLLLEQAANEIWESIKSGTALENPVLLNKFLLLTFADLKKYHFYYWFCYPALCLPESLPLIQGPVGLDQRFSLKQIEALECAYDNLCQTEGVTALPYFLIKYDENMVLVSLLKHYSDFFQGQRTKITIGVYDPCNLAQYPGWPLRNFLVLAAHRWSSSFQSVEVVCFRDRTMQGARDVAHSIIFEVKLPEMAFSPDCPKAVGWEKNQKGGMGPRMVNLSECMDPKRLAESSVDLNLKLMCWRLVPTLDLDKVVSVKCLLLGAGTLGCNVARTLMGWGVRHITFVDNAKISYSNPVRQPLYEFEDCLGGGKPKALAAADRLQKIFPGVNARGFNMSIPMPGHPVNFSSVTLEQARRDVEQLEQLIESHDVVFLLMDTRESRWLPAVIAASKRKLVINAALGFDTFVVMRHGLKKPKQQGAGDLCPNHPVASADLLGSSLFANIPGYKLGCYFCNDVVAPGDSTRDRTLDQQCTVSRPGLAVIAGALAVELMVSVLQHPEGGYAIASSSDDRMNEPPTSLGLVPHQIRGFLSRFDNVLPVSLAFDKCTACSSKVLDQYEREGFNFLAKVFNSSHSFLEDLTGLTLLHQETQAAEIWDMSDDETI
Put plainly: Inhibition of recombinant His-tagged human ATG7 incubated for 105 mins in presence of GST-tagged ATG3 and Flag-tagged Gabarap and measured after 2 hrs by FRET assay.
With `Nc1ncnc2c1c(SCCO)nn2[C@@H]1O[C@H](COS(N)(=O)=O)[C@@H](O)[C@@H]1F`, the pIC50 was 7.30 to 7.70.
On to `CCc1nn([C@H]2C[C@H](O)[C@H](COS(N)(=O)=O)O2)c2ncnc(N)c12`, for which the pIC50 was under 6.30.

The target in a further test is T2, Ubiquitin-like modifier-activating enzyme ATG7 (Homo sapiens) (UniProt O95352).
T2 sequence (whole entry): T1 sequence (O95352 whole entry)
Put plainly: Inhibition of recombinant His-tagged human ATG7 at 0.111 uM incubated for 105 mins in presence of GST-tagged ATG3 and Flag-tagged Gabarap and measured after 2 hrs by FRET assay relative to control.
With `CC[C@@H](C)Sc1nn([C@@H]2O[C@H](COS(N)(=O)=O)[C@@H](O)[C@@H]2F)c2ncnc(N)c12`, the inhibition is 63%.
As to `CC[C@H](C)Sc1nn([C@@H]2O[C@H](COS(N)(=O)=O)[C@@H](O)[C@@H]2F)c2ncnc(N)c12`, the inhibition turned out to be 61%.
Regarding `Cc1ccc(Sc2nn([C@H]3C[C@H](O)[C@@H](COS(N)(=O)=O)O3)c3ncnc(N)c23)c(F)c1`, the inhibition lay within 59 to 64%.
With `Nc1ncnc2c1cnn2[C@H]1C[C@H](O)[C@H](COS(N)(=O)=O)O1`, the inhibition was 5%.

The pIC50 is −log10 of the IC50, conventionally taken in molar units. One may read the inhibition as the share of the control response that was lost under treatment.

For the origin of these results see ChEMBL document CHEMBL4418315, “Atg7 inhibitors and the uses thereof” (2018).
